Source: PubChem BioAssay AID1259408 (Genetic Toxicology Data Bank (GENE-TOX), 2018)
Calls of active or inactive are those of the source. The rule behind the calls is not given here.

Tested on: GENE-TOX genotoxicity assays, various organisms and cells
Test: GENE-TOX mutagenicity studies
Settings: for call: Assay Type: In vivo carcinogenicity studies
[1] = Species/Cell Type: Nonhuman, Assay Code: CCGT, Evaluation Type: Evaluation A (Pre-1980)
[2] = Species/Cell Type: Salmonella typhimurium (one or more of the five standard strains: TA98, TA100, TA1535, TA1537, and TA1538), Assay Type: Histidine reverse gene mutation, Ames assay, Assay Code: SAL+*, Activation: With metabolic activation, Evaluation Type: Evaluation A (Pre-1980)
[3] = Species/Cell Type: Drosophila melanogaster, Assay Type: Sex-linked recessive lethal gene mutation, Assay Code: SRLT, Evaluation Type: Evaluation A (Pre-1980)
[4] = Species/Cell Type: Drosophila melanogaster, Assay Type: Sex-linked recessive lethal gene mutation, Assay Code: SRL+, Evaluation Type: Evaluation A (Pre-1980)
[5] = Species/Cell Type: Salmonella typhimurium (one or more of the five standard strains: TA98, TA100, TA1535, TA1537, and TA1538), Assay Type: Histidine reverse gene mutation, Ames assay, Assay Code: SAL+, Evaluation Type: Evaluation A (Pre-1980)
[6] = Species/Cell Type: Salmonella typhimurium (one or more of the five standard strains: TA98, TA100, TA1535, TA1537, and TA1538), Assay Type: Histidine reverse gene mutation, Ames assay, Assay Code: SALT, Evaluation Type: Evaluation A (Pre-1980)
[7] = Species/Cell Type: Escherichia coli polA (W3119 vs P3478), Assay Type: Rec-assay, DNA effects (bacterial DNA repair), Assay Code: RE1+, Evaluation Type: Evaluation A (Pre-1980)
[8] = Species/Cell Type: Allium cepa, Assay Type: Chromosome aberrations, Assay Code: ALC+, Evaluation Type: Evaluation A (Pre-1980)

## CCCCOC(=O)c1ccccc1C(=O)OCCCC
Species/Cell Type: Nonhuman, Assay Type: Sister-chromatid exchange (SCE) in vitro, Assay Code: SC2+, Evaluation Type: Evaluation B (Post-1980)
  mutagenic call: active; positive
Species/Cell Type: Nonhuman, Assay Type: Sister-chromatid exchange (SCE) in vitro, Assay Code: SC2T, Evaluation Type: Evaluation A (Pre-1980)
  mutagenic call: no conclusion
Species/Cell Type: Saccharomyces cerevisiae, Assay Type: Reverse gene mutation, Assay Code: YER-*, Activation: With metabolic activation, Evaluation Type: Evaluation A (Pre-1980)
  mutagenic call: inactive; negative

## CC[N+](C)(CC)CCC[n+]1c(-c2ccccc2)c2cc(N)ccc2c2ccc(N)cc21
Species/Cell Type: Mammalian cell culture, nonhuman, Assay Type: Micronucleus test in vitro, chromosome aberrations, Assay Code: MN&+, Evaluation Type: Evaluation A (Pre-1980)
  mutagenic call: active; positive

## Nc1ccccc1-c1ccccc1
Species/Cell Type: Escherichia coli polA (W3110 vs P3478), Assay Type: Rec-assay, DNA effects (bacterial DNA repair), Assay Code: RE2-, Evaluation Type: Evaluation A (Pre-1980)
  mutagenic call: inactive; negative
Species/Cell Type: Escherichia coli polA (W3119 vs P3478), Assay Type: Rec-assay, DNA effects (bacterial DNA repair), Assay Code: RE1T, Evaluation Type: Evaluation A (Pre-1980)
  mutagenic call: no conclusion
Species/Cell Type: Fischer rat embryo (RLV/1706) cells, Assay Type: Cell transformation, viral enhanced, Assay Code: CTR-, Evaluation Type: Evaluation A (Pre-1980)
  mutagenic call: inactive; negative
Species/Cell Type: Mouse embryo (AKR/ME) cells, Assay Type: Cell transformation, Assay Code: CTK+, Evaluation Type: Evaluation A (Pre-1980)
  mutagenic call: active; positive
[1]
  call: no conclusion
Species/Cell Type: Nonhuman, Assay Type: Sister-chromatid exchange (SCE) in vivo, Assay Code: SC3T, Evaluation Type: Evaluation B (Post-1980)
  mutagenic call: no conclusion
Species/Cell Type: Rat primary hepatocytes, Assay Type: Unscheduled DNA synthesis (UDS) in vitro, DNA effects, Assay Code: UDP-, Evaluation Type: Evaluation A (Pre-1980)
  mutagenic call: inactive; negative
Species/Cell Type: Saccharomyces cerevisiae, Assay Type: Mitotic recombination or gene conversion, Assay Code: YEH-, Evaluation Type: Evaluation A (Pre-1980)
  mutagenic call: inactive; negative
[2]
  mutagenic call: active; positive
Species/Cell Type: Salmonella typhimurium, Assay Type: Forward and reverse gene mutation, body fluid assay, Assay Code: BFU-, Evaluation Type: Evaluation A (Pre-1980)
  mutagenic call: inactive; negative
Species/Cell Type: Salmonella typhimurium, Assay Type: Forward and reverse gene mutation, host-mediated assay, Assay Code: HMA-, Evaluation Type: Evaluation A (Pre-1980)
  mutagenic call: inactive; negative
Species/Cell Type: Syrian hamster embryo (SHE) cells, Assay Type: Cell transformation, clonal assay, Assay Code: CTC-, Evaluation Type: Evaluation A (Pre-1980)
  mutagenic call: inactive; negative

## O=c1ccn([C@H]2C[C@H](O)[C@@H](CO)O2)c(=O)[nH]1
[3]
  mutagenic call: no conclusion

## CC1CCN(N=O)CC1
Species/Cell Type: Drosophila melanogaster, Assay Type: Aneuploidy, partial sex chromosome loss, chromosome aberrations, Assay Code: DAPT, Evaluation Type: Evaluation A (Pre-1980)
  mutagenic call: no conclusion
Species/Cell Type: Drosophila melanogaster, Assay Type: Aneuploidy, whole sex chromosome loss, chromosome aberrations, Assay Code: DACT, Evaluation Type: Evaluation A (Pre-1980)
  mutagenic call: no conclusion
[4]
  mutagenic call: active; positive
Species/Cell Type: Saccharomyces cerevisiae, Assay Type: Forward gene mutation, Assay Code: YEF+*, Activation: With metabolic activation, Evaluation Type: Evaluation A (Pre-1980)
  mutagenic call: active; positive
[2]
  mutagenic call: active; positive

## CC(=O)Nc1ccc(-c2ccccc2)cc1
Species/Cell Type: Human diploid fibroblasts, Assay Type: Unscheduled DNA synthesis (UDS) in vitro, DNA effects, Assay Code: UDH-, Evaluation Type: Evaluation A (Pre-1980)
  mutagenic call: inactive; negative

## CCCCN(N=O)C(=O)OCC
Species/Cell Type: Nonhuman, Assay Code: CCG+, Evaluation Type: Evaluation A (Pre-1980)
  call: active; positive
Species/Cell Type: Nonhuman, Assay Type: Sister-chromatid exchange (SCE) in vitro, Assay Code: SC2+, Evaluation Type: Evaluation A (Pre-1980)
  mutagenic call: active; positive

## O=NN1CCC(=O)NC1=O
[5]
  mutagenic call: active; positive

## N[C@H](Cc1ccc(N(CCCl)CCCl)cc1)C(=O)O
[4]
  mutagenic call: active; positive

## O=[N+]([O-])c1cc([N+](=O)[O-])c2ccc(S(=O)(=O)O)cc2c1O
Species/Cell Type: Bacillus subtilis (H17 vs M45), Assay Type: Rec-assay, spot test, DNA effects (bacterial DNA repair), Assay Code: REWT, Evaluation Type: Evaluation A (Pre-1980)
  mutagenic call: no conclusion
Species/Cell Type: Bacillus subtilis (H17 vs M45T), Assay Type: Rec-assay, spot test, DNA effects (bacterial DNA repair), Assay Code: REXT, Evaluation Type: Evaluation A (Pre-1980)
  mutagenic call: no conclusion
[5]
  mutagenic call: active; positive
[6]
  mutagenic call: no conclusion

## BrC(Br)C(Br)Br
[7]
  mutagenic call: active; positive

## Nc1c[nH]c(=O)[nH]c1=O
[8]
  mutagenic call: active; positive

## CCN(CC)c1ccc(N=Nc2ccccc2C(=O)O)cc1
[3]
  mutagenic call: no conclusion

## ClC1=CC(c2cc(Cl)ccc2Cl)=C(Cl)[C@H]2O[C@@H]12
[6]
  mutagenic call: no conclusion

## CCCCNC(=O)N(CCCC)c1nc(-c2ccccc2)cs1
Species/Cell Type: Salmonella typhimurium, Assay Type: Forward and reverse gene mutation, host-mediated assay, Assay Code: HMA+, Evaluation Type: Evaluation A (Pre-1980)
  mutagenic call: active; positive

## Cc1cc(C)[o+]c(C)c1
[8]
  mutagenic call: active; positive

## CCC1(c2ccc(O)cc2)OC1(CC)c1ccc(O)cc1 (stereo not given)
Species/Cell Type: Human, Assay Type: Sister-chromatid exchange (SCE) in vitro, Assay Code: SC1+D, Dose Response: With dose response, Evaluation Type: Evaluation B (Post-1980)
  mutagenic call: active; positive

## COC(=O)Nc1cccc(OC(=O)Nc2cccc(C)c2)c1
Species/Cell Type: Aspergillus nidulans, Assay Type: Aneuploidy, chromosome aberrations, Assay Code: ASN+, Evaluation Type: Evaluation A (Pre-1980)
  mutagenic call: active; positive
Species/Cell Type: Saccharomyces cerevisiae, Assay Type: Mitotic recombination or gene conversion, Assay Code: YEC-, Evaluation Type: Evaluation A (Pre-1980)
  mutagenic call: inactive; negative

## CCOC(=O)c1cc2cc3ccoc3cc2oc1=O
Species/Cell Type: Human, Assay Type: Sister-chromatid exchange (SCE) in vitro, Assay Code: SC1+, Evaluation Type: Evaluation B (Post-1980)
  mutagenic call: active; positive

## OCCBr
[7]
  mutagenic call: active; positive
Species/Cell Type: Mouse, Sex: Male, Assay Type: Sperm morphology, Assay Code: SPI-, Evaluation Type: Evaluation A (Pre-1980)
  mutagenic call: inactive; negative
[5]
  mutagenic call: active; positive
Species/Cell Type: Tradescantia species, Assay Type: Gene mutation, Assay Code: TRM+D, Dose Response: With dose response, Evaluation Type: Evaluation A (Pre-1980)
  mutagenic call: active; positive

## O[C@H]1C=Cc2cc3c4ccccc4c4ccccc4c3cc2[C@@H]1O
Species/Cell Type: Nonhuman, Assay Type: Sister-chromatid exchange (SCE) in vitro, Assay Code: SC2+D, Dose Response: With dose response, Evaluation Type: Evaluation B (Post-1980)
  mutagenic call: active; positive

## [O-2].[O-2].[O-2].[Sb+3].[Sb+3]
Species/Cell Type: Bacillus subtilis (H17 vs M45), Assay Type: Rec-assay, spot test, DNA effects (bacterial DNA repair), Assay Code: REW+, Evaluation Type: Evaluation A (Pre-1980)
  mutagenic call: active; positive

## O=C1C=Cc2ccc3c4c(ccc1c24)C(=O)c1ccccc1-3
Species/Cell Type: Chinese hamster lung (V79) cells, Assay Type: Forward gene mutation at the HPRT or ouabain locus, Assay Code: V79+, Evaluation Type: Evaluation A (Pre-1980)
  mutagenic call: active; positive
[1]
  call: no conclusion
[6]
  mutagenic call: no conclusion

## C/C=C1/C[C@@H](C)[C@](O)(CO)C(=O)OCC2=CCN3CC[C@@H](OC1=O)[C@@H]23
[4]
  mutagenic call: active; positive
[2]
  mutagenic call: active; positive

## COc1nc2c(c(=O)n(C)c(=O)n2C)n1C
Species/Cell Type: Allium cepa, Assay Type: Chromosome aberrations, Assay Code: ALC+D, Dose Response: With dose response, Evaluation Type: Evaluation A (Pre-1980)
  mutagenic call: active; positive
Species/Cell Type: Vicia faba, Assay Type: Chromosome aberrations, Assay Code: VIC+, Evaluation Type: Evaluation A (Pre-1980)
  mutagenic call: active; positive

## O=[N+]([O-])c1ccnc2ccccc12
Species/Cell Type: Escherichia coli polA (W3119 vs P3478), Assay Type: Rec-assay, DNA effects (bacterial DNA repair), Assay Code: RE1-, Evaluation Type: Evaluation A (Pre-1980)
  mutagenic call: inactive; negative
